According to patent US20120095030A1, “METHODS AND KITS TO PREDICT THERAPEUTIC OUTCOME OF TYROSINE KINASE INHIBITORS” (THE TRANSLATIONAL GENOMICS RESEARCH INSTITUTE, priority 2009, published 2012):
Where two headings read alike, the source gives them in different places.

Legend:
Format in all cases: cell-based
H358 NSCLC cell line = assay: AlamarBlue proliferation assay, H358; details: Homo sapiens
Procedure: (§1) Cytotoxicity is measured using fluorescence spectrophotometry.
(§2) TKI sensitivity was determined in NSCLC cell lines. Vandetanib and sunitinib sensitivity was measured in seven NSCLC cell lines. Erlotinib sensitivity was measured in nine NSCLC cell lines. An AlamarBlue proliferation assay at 72 hours was used to measure TKI sensitivity. GraphPad Prism 4.01 was used to determine IC50 values. Expression of seven miRNAs was measured by qRT-PCR. qRT-PCR data were normalized to the reference RNU6 and fold changes were computed against the selected sensitive cell line for each drug. A two-sided z-test was used to compute the p-values for the fold changes. A score was calculated for each miRNA/drug combination to see whether a miRNA can determine resistance across cell lines. Fold changes were first ternarized and assigned a value of +1, −1, or 0. Elevated miRNA expression relative to control (fold change>1 AND p-value<0.05) was assigned a value of +1. Reduced miRNA expression relative to control (fold change<1 AND p-value<0.05) was assigned a value of −1. Any non-significant fold change (p-value>0.05) was assigned a value of 0. These values were then multiplied by a value of +1 or −1 as assigned by the resistance characteristics of the cell line: Resistant cell lines were assigned a value=+1. Sensitive cell lines were assigned a value=−1. The final score was computed by the sum of the points for the cells lines divided by the number of cell lines (the reference cell line was not used in computing the scores).

A549 NSCLC cell line = assay: AlamarBlue proliferation assay, A549; details: Homo sapiens
Procedure: as §1, §2

H2122 NSCLC cell line = assay: AlamarBlue proliferation assay, H2122; details: Homo sapiens
Procedure: as §1, §2

H1703 NSCLC cell line = assay: AlamarBlue proliferation assay, H1703; details: Homo sapiens
Procedure: as §1, §2

H520 NSCLC cell line = assay: AlamarBlue proliferation assay, H520; details: Homo sapiens
Procedure: as §1, §2

HCC827 NSCLC cell line = assay: AlamarBlue proliferation assay, HCC827; details: Homo sapiens, 72 hours
Procedure: One method of measuring IC50 by AlamarBlue proliferation that may be used in determining an IC50 is as follows:
(§4) Cells in the log phase of expansion are harvested and counted. The cells are then adjusted to a density of 1×10^4 cells/ml, though the optimum cell density may vary between cell types. […] The AlamarBlue® reagent is mixed, and then aseptically added to the cells in an amount around 10% of the well volume. Cells are incubated in the presence of the reagent from 4-8 hours. Cytotoxicity is measured using fluorescence spectrophotometry. Absorbance is measured at 570 nm and 600 nm blanked in a plate containing medium only. To calculate the percent difference in reduction between treated and control cells in Percentage difference between treated and control cells
(§5) TKI sensitivity was determined in NSCLC cell lines. […] An AlamarBlue proliferation assay at 72 hours was used to measure TKI sensitivity. GraphPad Prism 4.01 was used to determine IC50 values.

H460 NSCLC cell line = assay: AlamarBlue proliferation assay, H460; details: Homo sapiens
Procedure: as §1, §2

[1] = tested on: NSCLC cell lines classified as resistant; assay: AlamarBlue proliferation assay, NSCLC lines classified as resistant; details: read-out: IC50s of the remaining lines classified as resistant
Procedure: as §4, §5

HCC4006 NSCLC cell line = assay: AlamarBlue proliferation assay, HCC4006; details: Homo sapiens, 72 hours
Procedure: as §1
as §2, with “The final score was computed by the sum of the points for the cells lines divided by the number of cell lines (the reference cell line was not used in computing the scores).” left out

H2073 NSCLC cell line = assay: AlamarBlue proliferation assay, H2073; details: NCI-H2073, 72 hours
Procedure: as §1
as §2, with “The final score was computed by the sum of the points for the cells lines divided by the number of cell lines (the reference cell line was not used in computing the scores).” left out

[2] = tested on: H1703 Sunitinib resistant line A (H1703 SRa); assay: Alamar blue assay, H1703 SRa; details: Homo sapiens, NCI-H1703, read-out: Sunitinib IC50(μM), Example 3, mean of three experiments
Procedure: (§3) GraphPad Prism 4.01 was used to calculate IC50 values. […] GenoSensor GenoExplorer™ microRNA Expression System (Sanger miRNA Registry version 14 containing probes for 904 mature miRNAs and 450 pre-miRNAs) was used to screen miR expression. Differences in miRs expression between the parent and resistant cells were identified using at test with Benjamini-Hochberg correction and validated by qPCR. A score was calculated for each miRNA to determine whether a miRNA can predict SR.

[3] = tested on: H1703 Sunitinib resistant line B (H1703 SRb); assay: Alamar blue assay, H1703 SRb; details: Homo sapiens, NCI-H1703, read-out: Sunitinib IC50(μM), Example 3, mean of three experiments
Procedure: as §3

[4] = NCI-H358, H358, AlamarBlue proliferation, 72 hours, read-out: IC50
[5] = A549, AlamarBlue proliferation, 72 hours, read-out: IC50
[6] = NCI-H2122, H2122, AlamarBlue proliferation, 72 hours, read-out: IC50
[7] = NCI-H1703, H1703, AlamarBlue proliferation, 72 hours, read-out: IC50
[8] = NCI-H520, H520, AlamarBlue proliferation, 72 hours, read-out: IC50
[9] = NCI-H460, H460, AlamarBlue proliferation, 72 hours, read-out: IC50
[10] = range across resistant NSCLC lines, 72 hours

| SMILES | IC50 (H358 NSCLC cell line; [4]) [µM] | IC50 (A549 NSCLC cell line; [5]) [µM] | IC50 (H2122 NSCLC cell line; [6]) [µM] | IC50 (H1703 NSCLC cell line; [7]) [µM] | IC50 (H520 NSCLC cell line; [8]) [µM] | IC50 (HCC827 NSCLC cell line) [µM] | IC50 (H460 NSCLC cell line; [9]) [µM] | IC50 [1, 10] [µM] | IC50 (HCC4006 NSCLC cell line) [µM] | IC50 (H2073 NSCLC cell line) [µM] | IC50 ([1]; 72 h) [µM] | IC50 (H358 NSCLC cell line; NCI-H358, read-out: Sunitinib IC50(μM), H358, Example 3, mean of three experiments) [µM] | IC50 (A549 NSCLC cell line; read-out: Sunitinib IC50(μM), A549, Example 3, mean of three experiments) [µM] | IC50 [2] [µM] | IC50 [3] [µM] | IC50 (H2122 NSCLC cell line; NCI-H2122, read-out: Sunitinib IC50(μM), H2122, Example 3, mean of three experiments) [µM] | IC50 (H1703 NSCLC cell line; NCI-H1703, read-out: Sunitinib IC50(μM), H1703 control, Example 3, mean of three experiments) [µM] | IC50 (H520 NSCLC cell line; NCI-H520, read-out: Sunitinib IC50(μM), H520, Example 3, mean of three experiments) [µM] | IC50 (H460 NSCLC cell line; NCI-H460, read-out: Sunitinib IC50(μM), H460, Example 3, mean of three experiments) [µM] |
| --- | --- | --- | --- | --- | --- | --- | --- | --- | --- | --- | --- | --- | --- | --- | --- | --- | --- | --- | --- |
| COc1cc2c(Nc3ccc(Br)cc3F)ncnc2cc1OCC1CCN(C)CC1 [Vandetanib] | 4.2 | 9.7 | 5.9 | 2.1 | 12.1 | 0.55 | 13.9 | 2.1 to 13.9 | – | – | – | – | – | – | – | – | – | – | – |
| C#Cc1cccc(Nc2ncnc3cc(OCCOC)c(OCCOC)cc23)c1 [Erlotinib, N-(3-ethynylphenyl)-6,7-bis(2-methoxyethoxy)quinazolin-4-amine] | 28.6 | > 50 | 12.3 | > 50 | > 50 | – | 39.2 | – | 0.02 | 9.7 | ≥ 9.7 | – | – | – | – | – | – | – | – |
| CCN(CC)CCNC(=O)c1c(C)[nH]c(/C=C2\C(=O)Nc3ccc(F)cc32)c1C [Sunitinib, N-[2-(diethylamino)ethyl]-5-[(Z)-(5-fluoro-1,2-dihydro-2-oxo-3H-indol-3-ylidine)methyl]-2,4-dimethyl-1H-pyrrole-3-carboxamide] | 14.2 | 5.5 | 4.8 | 0.51 | 8.2 | – | 5.6 | 4.8 to 14.2 | – | – | – | 14.2 | 5.5 | 7.6 | 4.37 | 4.8 | 0.13 | 8.2 | 5.6 |
